Test results reported in US8106055B2, “Substituted amide compounds” (Gruenenthal GmbH, priority 2007, dated 2012).

Experiments:
[1] = target: T1, bradykinin 1 receptor (B1R) of the rat (Rattus norvegicus, UniProt P97583); test: Functional investigation on the rat bradykinin 1 receptor (B1R), Ca2+ FLIPR assay in CHO K1 rB1R cells; assay type: cell-based; settings: B1R antagonism rat; test substance 10 μM; Ca2+ FLIPR, CHO K1 rB1R cells
T1 construct: expressed in transfected cells; host or cells: CHO K1 cells
T1 sequence (P97583 1-337): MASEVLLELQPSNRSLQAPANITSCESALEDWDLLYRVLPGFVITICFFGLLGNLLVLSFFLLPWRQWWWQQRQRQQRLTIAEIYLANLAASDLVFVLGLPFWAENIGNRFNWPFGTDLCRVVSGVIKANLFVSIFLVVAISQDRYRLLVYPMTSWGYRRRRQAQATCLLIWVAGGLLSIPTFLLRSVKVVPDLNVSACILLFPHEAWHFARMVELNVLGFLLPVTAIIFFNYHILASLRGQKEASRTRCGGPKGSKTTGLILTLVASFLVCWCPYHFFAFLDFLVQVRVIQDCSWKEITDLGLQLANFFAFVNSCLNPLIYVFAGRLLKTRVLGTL
Procedure, shortened: (§1)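 Fluo-4 Ca2+ readout, peak fluorescence. Stable CHO K1 transfectants; compound pre-incubated 10-20 min, then EC80 agonist—Lys-Des-Arg9-BK for hB1R, Des-Arg9-BK for rB1R. % inhibition vs maximal inhibition; IC50 from multiple concentrations, duplicate/triplicate, ≥2 independent runs.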

[2] = target: T2, human bradykinin 1 receptor (B1R) (Homo sapiens, UniProt P46663); test: Functional investigation on the human bradykinin 1 receptor (B1R), Ca2+ FLIPR assay in CHO K1 hB1R cells; assay type: cell-based; settings: B1R antagonism human; test substance 10 μM; Ca2+ FLIPR, CHO K1 hB1R cells
T2 construct: expressed in transfected cells; host or cells: CHO K1 cells
T2 sequence (P46663 1-353): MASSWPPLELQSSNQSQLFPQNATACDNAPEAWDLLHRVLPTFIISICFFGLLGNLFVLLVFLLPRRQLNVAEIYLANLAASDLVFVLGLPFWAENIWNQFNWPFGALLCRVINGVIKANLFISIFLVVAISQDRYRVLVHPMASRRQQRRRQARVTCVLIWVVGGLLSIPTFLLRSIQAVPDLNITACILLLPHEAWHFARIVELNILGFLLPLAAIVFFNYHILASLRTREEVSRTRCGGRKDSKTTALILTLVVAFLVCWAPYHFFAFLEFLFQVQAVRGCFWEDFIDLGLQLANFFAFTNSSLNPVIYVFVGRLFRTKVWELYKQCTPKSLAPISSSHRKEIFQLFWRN
Procedure, shortened: as §1

Structure (SMILES)	B1R Ant. r [10 μM] % Inhibition [1] [%]	B1R Ant. h [10 μM] % Inhibition [2] [%]
CN(C)C(c1ccc(F)cc1)C1CCC(CCNC(=O)COCCN(C)S(=O)(=O)c2cccc(C(F)(F)F)c2)CC1 (stereo not drawn) [Example 368]	17	39
CN(C)C(c1ccc(F)cc1)C1CCC(NC(=O)COCCN(C)S(=O)(=O)c2cccc(C(F)(F)F)c2)CC1 (stereo not drawn) [Example 438]	−10	9
CN(C)C(c1ccc(Cl)cc1)C1CCC(CCNC(=O)COCC2CCCN(S(=O)(=O)c3ccccc3)C2)CC1 (stereo not drawn) [Example 425]	30	12
COc1ccc(S(=O)(=O)N2CCC(OCC(=O)NCCC3CCC(C(c4ccc(F)cc4)N(C)C)CC3)C2)cc1OC (stereo not drawn) [Example 430]	21	−7
COc1ccc(S(=O)(=O)N(C)CCOCC(=O)NC2CCC(C(c3cccc(F)c3)N(C)C)CC2)cc1OC (stereo not drawn) [Example 401]	1	−19
Cc1cc(C)c(S(=O)(=O)N2CCC(OCC(=O)NCC3CCC(C(c4ccc(F)cc4)N(C)C)CC3)C2)c(C)c1 (stereo not drawn) [Example 432]	45	61
CN(C)C(c1ccc(Cl)cc1)C1CCC(CNC(=O)COC2CCN(S(=O)(=O)c3ccc(Cl)cc3)C2)CC1 (stereo not drawn) [Example 384]	25	31
COc1ccc(S(=O)(=O)N2Cc3ccccc3CC2COCC(=O)NCC2CCC(C(CCc3ccccc3)N(C)C)CC2)cc1 (stereo not drawn) [Example 373]	12	98
COc1cc(C)c(S(=O)(=O)N(C)CCOCC(=O)NCCC2CCC(C(c3ccc(Cl)cc3)N(C)C)CC2)c(C)c1 (stereo not drawn) [Example 378]	101	104
COc1cc(C)c(S(=O)(=O)N2CCC(OCC(=O)NCC3CCC(C(c4ccc(Cl)cc4)N(C)C)CC3)C2)c(C)c1 (stereo not drawn) [Example 403]	84	106
COc1ccc(S(=O)(=O)N2CCCCC2COCC(=O)NCC2CCC(C(c3ccc(F)cc3)N(C)C)CC2)c(OC)c1 (stereo not drawn) [Example 405]	24	5
COc1cc(C)c(S(=O)(=O)N2CCCC(OCC(=O)NCC3CCC(C(c4ccc(Cl)cc4)N(C)C)CC3)C2)c(C)c1C (stereo not drawn) [Example 449]	−7	25
CN(C)C(c1ccc(Cl)cc1)C1CCC(CNC(=O)COC2CCN(S(=O)(=O)c3ccc(F)cc3)C2)CC1 (stereo not drawn) [Example 394]	21	2
CN(C)C(c1cccc(F)c1)C1CCC(CCNC(=O)COC2CCN(S(=O)(=O)c3ccccc3)C2)CC1 (stereo not drawn) [Example 376]	12	−17
CN(C)C(c1ccc(F)cc1)C1CCC(NC(=O)COCCN(C)S(=O)(=O)c2ccc(Cl)cc2)CC1 (stereo not drawn) [Example 406]	12	5
CN(C)C(c1ccc(F)cc1)C1CCC(NC(=O)COCCN(C)S(=O)(=O)c2c(Cl)cc(Cl)cc2Cl)CC1 (stereo not drawn) [Example 382]	30	103
CN(C)C(c1ccc(F)cc1)C1CCC(CNC(=O)COCC2CCCN(S(=O)(=O)c3ccccc3)C2)CC1 (stereo not drawn) [Example 424]	20	−12
CN(C)C(c1ccc(F)cc1)C1CCC(NC(=O)COC2CCN(S(=O)(=O)c3ccc(Cl)cc3)C2)CC1 (stereo not drawn) [Example 370]	3	−14

Structure (SMILES)	B1R Ant. r [10 μM] % Inhibition [1] [%]	B1R Ant. h [10 μM] % Inhibition [2] [%]
COc1cc(C)c(S(=O)(=O)N2CCC(OCC(=O)NCC3CCC(C(c4ccc(F)cc4)N(C)C)CC3)C2)c(C)c1C (stereo not drawn) [Example 427]	8	76
COc1cc(C)c(S(=O)(=O)N2CCC(OCC(=O)NCC3CCC(C(c4ccc(Cl)cc4)N(C)C)CC3)C2)c(C)c1C (stereo not drawn) [Example 428]	8	48
CN(C)C(c1ccc(Cl)cc1)C1CCC(CCNC(=O)COCCN(Cc2ccccc2)S(=O)(=O)c2ccccc2)CC1 (stereo not drawn) [Example 426]	9	−7
COc1cc(C)c(S(=O)(=O)N2CCC(OCC(=O)NCCC3CCC(C(c4ccc(Cl)cc4)N(C)C)CC3)C2)c(C)c1C (stereo not drawn) [Example 412]	−5	40
CN(C)C(c1ccc(Cl)cc1)C1CCC(CCNC(=O)COC2CCCCC2N(C)S(=O)(=O)c2ccc(Cl)c(Cl)c2)CC1 (stereo not drawn) [Example 410]	6	1
CCN(CCOCC(=O)NCCC1CCC(C(c2ccc(Cl)cc2)N(C)C)CC1)S(=O)(=O)c1c(C)cc(OC)c(C)c1C (stereo not drawn) [Example 434]	58	47
COc1cc(C)c(S(=O)(=O)N(CCOCC(=O)NCC2CCC(C(c3cccc(F)c3)N(C)C)CC2)Cc2ccccc2)c(C)c1 (stereo not drawn) [Example 388]	16	74
COc1cc(C)c(S(=O)(=O)N2CCC(CCOCC(=O)NCCC3CCC(C(c4cccc(F)c4)N(C)C)CC3)CC2)c(C)c1C (stereo not drawn) [Example 397]	−11	2
COc1ccc(S(=O)(=O)N2CCCCC2CCOCC(=O)NCCC2CCC(C(c3ccc(Cl)cc3)N(C)C)CC2)cc1 (stereo not drawn) [Example 383]	33	77
CN(C)C(c1ccc(F)cc1)C1CCC(CNC(=O)COCCN(C)S(=O)(=O)c2c(Cl)cc(Cl)cc2Cl)CC1 (stereo not drawn) [Example 404]	33	104
CN(C)C(c1ccc(F)cc1)C1CCC(NC(=O)COC2CCCN(S(=O)(=O)c3ccccc3)C2)CC1 (stereo not drawn) [Example 423]	−20	4
CN(C)C(c1ccc(F)cc1)C1CCC(CNC(=O)COCCN2CCN(S(=O)(=O)c3ccccc3)CC2)CC1 (stereo not drawn) [Example 433]	−12	−4
COc1cc(C)c(S(=O)(=O)N2CCN(CCOCC(=O)NCC3CCC(C(c4ccc(F)cc4)N(C)C)CC3)CC2)c(C)c1C (stereo not drawn) [Example 366]	16	55
CN(C)C(c1ccc(F)cc1)C1CCC(NC(=O)COC2CCN(S(=O)(=O)c3ccccc3)CC2)CC1 (stereo not drawn) [Example 408]	1	−16
CN(C)C(CCc1ccccc1)C1CCC(CNC(=O)COCCN(C)S(=O)(=O)c2ccc(Cl)cc2)CC1 (stereo not drawn) [Example 445]	46	66
CN(C)C(c1ccc(F)cc1)C1CCC(NC(=O)COCCN(C)S(=O)(=O)c2c(Cl)cccc2Cl)CC1 (stereo not drawn) [Example 363]	29	80
COc1cc(C)c(S(=O)(=O)N2CCC(OCC(=O)NC3CCC(C(c4ccc(F)cc4)N(C)C)CC3)C2)c(C)c1 (stereo not drawn) [Example 441]	84	94
COc1cc(C)c(S(=O)(=O)N(CCOCC(=O)NC2CCC(C(c3cccc(F)c3)N(C)C)CC2)Cc2ccccc2)c(C)c1C (stereo not drawn) [Example 419]	34	37
